Assay results published in patent publication US20060134801A1, “Methods and compositions involving MDA-7” (Board of Regents, The University of Texas System, priority 2003, published 2006).
pIC50: −log10 of the molar value.

Key:
[1] = test system: CCD-16; assay: Ad-GFP transduction efficiency with sulindac (flow cytometry); format: cell-based, human; conditions: Ad-GFP 100 vp/cell, 24 h
Procedure: (§1) To determine the effect of sulindac on adenovirus transduction, tumor and normal cells were infected with Ad-GFP at 100 vp/cell and analyzed for GFP expression at 24 h by FACS.

[2] = test system: A549; assay: as above; format: cell-based, human; conditions: Ad-GFP 100 vp/cell, 24 h
Procedure: as §1

[3] = test system: H1299; assay: as above; format: cell-based, human; conditions: Ad-GFP 100 vp/cell, 24 h
Procedure: as §1

[4] = biological target: T1, proteasome in H1299 cells (Homo sapiens, UniProt P28074); assay: Proteasome activity assay and ubiquitinated protein western blot; format: cell-based; conditions: vs untreated control cells
T1 construct: endogenous in cells; host or cells: H1299 human lung cancer cells, treated and then lysed; 20 µg total lysate protein per reaction
Procedure: Proteasome activity assays were performed as previously described (Choi et al., 2003). […] The sulindac concentrations tested were the same as those in the other assays. At 24 h after the start of treatment, the cells were lysed in proteasome buffer (10 mM Tris-HCl, pH 7.5, 1 mM EDTA, 20% glycerol, 5 mM ATP, and 4 mM DTT), sonicated, and then centrifuged at 1300×g at 4° C. for 10 min. The upper supernatant phase was collected, and the protein concentration of cell lysates was determined as previously described (Saeki et al., 2000).
To assay the chymotrypsin-like activity of the proteasome, the fluorogenic substrate Suc-LLVY-AMC (Chemicon International, Inc., Temecula, Calif.) was used. Twenty micrograms of total protein from each treatment group described above was diluted to 100 μl in reaction buffer (25 mM HEPES, pH 7.5, 0.5 mM EDTA, 0.05% NP-40, and 0.001% SDS). […] The intensity of fluorescence in each sample solution was measured using a fluorescence plate reader (Dynatech Laboratories, Chantily, Va.) at 360-nm excitatory and 460-nm emission wavelengths. All readings were standardized using the fluorescence intensity of an equal volume of free 7-Amino-4-methylcoumarin (AMC) solution (50 μM). The values were expressed as percentages for control greater than the internal positive control percentages provided by the supplier.

[5] = test system: A549; assay: Cell proliferation assay (trypan blue); format: cell-based, human
Procedure: All three cell lines (A549, H1299, and CCD-16) were seeded in 60-mm-diameter tissue culture dishes at a density of 1×10^5 cells/dish in triplicate. […] […] At 72 h after the start of treatment, the cells were harvested by trypsinization, washed, and subjected to typan-blue exclusion assay as previously described (Saeki et al., 2000).

[6] = test system: A549; assay: Cell cycle distribution by FACS; format: cell-based, human; conditions: 72 h
Procedure: (§2) Each treatment group was tested in triplicate. The concentrations of sulindac used were the same as those for the cell-proliferation assay. At 72 h after the start of the treatment, cells were harvested, washed, and analyzed for cell cycle phases and apoptotic fraction as previously described (Saeki et al., 2000). The cell cycle phases and DNA contents were analyzed using FACScan (EPICS XL-MCL; Beckman Coulter, Fullerton, Calif.).

[7] = test system: H1299; assay: Cell cycle distribution by FACS; format: cell-based, human; conditions: 72 h
Procedure: as §2

[8] = test system: NF-κB; assay: NF-κB activation by EMSA; format: cell-based, human; conditions: H1299 and A549
[9] = test system: CCD-16; assay: Cell proliferation assay (trypan blue); format: cell-based, human
Procedure: (§3) All three cell lines (A549, H1299, and CCD-16) were seeded in 60-mm-diameter tissue culture dishes at a density of 1×10^5 cells/dish in triplicate. […] The concentrations of sulindac tested were 0.125, 0.25, and 0.5 mM. At 72 h after the start of treatment, the cells were harvested by trypsinization, washed, and subjected to typan-blue exclusion assay as previously described (Saeki et al., 2000).

[10] = test system: H1299; assay: Cell proliferation assay (trypan blue); format: cell-based; conditions: Homo sapiens, NCI-H1299; read-out: IC50 of growth inhibition
Procedure: as §3

[11] = test system: H1299 lung tumor xenografts; assay: H1299 subcutaneous xenograft, Ad-mda7 with sulindac; conditions: vector 3×10^9 vp intratumoral thrice a week; sulindac 40 mg/kg i.p. daily
Procedure: In mice receiving sulindac, 40 mg/kg was administered i.p. every day. Animals were weighed once a week to determine the body weight. Tumor growth was monitored and measured three times a week as described previously (Saeki et al., 2002; Ramesh et al., 2003). At 22-25 days after initiation of the treatment all animals were killed via CO2 inhalation, and the tumors were removed for histopathologic examination and western blot analysis. Experiments were performed two separate times for reproducibility and statistical significance.

T1 sequence (P28074 60-263): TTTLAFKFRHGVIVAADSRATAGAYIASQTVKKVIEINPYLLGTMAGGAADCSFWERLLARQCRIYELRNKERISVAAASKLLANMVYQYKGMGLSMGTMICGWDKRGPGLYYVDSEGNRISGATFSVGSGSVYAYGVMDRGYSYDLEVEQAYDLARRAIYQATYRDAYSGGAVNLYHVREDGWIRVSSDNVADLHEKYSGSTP

Compound `CC1=C(CC(=O)O)c2cc(F)ccc2/C1=C\c1ccc([S+](C)[O-])cc1` (centres unmarked) [Sulindac] has a transduction efficiency ([1]; sulindac 0.125 mM) of 12.1 ± 0.4%, a transduction efficiency ([1]; sulindac 0.25 mM) of 11.1 ± 1.0% and a transduction efficiency ([1]; sulindac 0.5 mM) of 13.7 ± 0.4%. The transduction efficiency ([2]; sulindac 0.125 mM) was 52.4 ± 0.6%, the transduction efficiency ([2]; sulindac 0.25 mM) was 51.5 ± 1.3% and the transduction efficiency ([2]; sulindac 0.5 mM) was 65.0 ± 1.5 + a %. For the same compound, the transduction efficiency ([3]; sulindac 0.125 mM) was 80.0 ± 0.5%, the transduction efficiency ([3]; sulindac 0.25 mM) was 78.6 ± 1.2% and the transduction efficiency ([3]; sulindac 0.5 mM) was 82.7 ± 2.8%. The proteasome activity [4] was “does not inhibit”, the pIC50 ([5]; Homo sapiens, A549, read-out: IC50 of growth inhibition) was 3.24 and the “inhibitory effect on cell proliferation” value ([5]; tumor cells, 1 and 2 mM) was greater than 90%. For the same compound, the “cells in G1” value ([6]; sulindac 0.125 mM) was 64.8%, the “cells in G2/M” value ([6]; sulindac 0.125 mM) was 6.4% and the “cells in S” value ([6]; sulindac 0.125 mM) was 28.9%. For the same compound, the “cells in G1” value ([6]; sulindac 0.5 mM) was 75.6%, the “cells in G2/M” value ([6]; sulindac 0.5 mM) was 6.0% and the “cells in S” value ([6]; sulindac 0.5 mM) was 18.5%. The “cells in G1” value ([7]; sulindac 0.125 mM) was 66.4%, the “cells in G2/M” value ([7]; sulindac 0.125 mM) was 11.4% and the “cells in S” value ([7]; sulindac 0.125 mM) was 22.3%. The “cells in G1” value ([7]; sulindac 0.5 mM) was 74.6%, the “cells in G2/M” value ([7]; sulindac 0.5 mM) was 12.7% and the “cells in S” value ([7]; sulindac 0.5 mM) was 13.0%. The NF-κB activation [8] was “inhibit NF-κB activation”, the pIC50 ([9]; Homo sapiens, read-out: IC50 of growth inhibition) was 3.03 and the “inhibitory effect on cell proliferation” value ([9]; normal cells, 1 and 2 mM) was 60%. The pIC50 [10] was 3.21 and the tumor growth [11] was “No significant growth inhibition”.
